Like-named read-outs stand apart in the source and are kept apart here.
Experiments:
[1] = test system: low-passage pancreatic cancer cells derived from 8 patients; assay: Viability of patient-derived pancreatic cancer cells, 3D and 3D coculture with pancreatic stellate cells; assay type: cell-based; details: Pancreatic cancer cell; 3D conditions alone or cocultured with human pancreatic stellate cells, 72 hours; read-out: IC50 values, viability, range over cells from 8 patients
Description: (§1) Low-passage (<20) human pancreatic cancer cell lines were derived from 8 patients with pancreatic cancer using IRB-approved (MDA Cancer Center protocol LAB07-0854) and previously described methods ([41–43]). The cell lines were provided to Dr. Jason B. Fleming by Dr. Michael P. Kim (MD Anderson Cancer Center). Written consent was obtained from the subjects, and the research was conducted according to Declaration of Helsinki. The cells were plated at 3,000/well in triplicate in a 96-well flat-bottom plate in RPMI1640 medium with 10% FBS. […] Pancreatic cancer cells (3,000/well) were resuspended in RPMI-2% Matrigel medium-10% FBS overlaid on the solidified Matrigel and cultured for 24 hours before treatment. For 3D coculture with pancreatic stellate cells, human pancreatic stellate cells were grown until confluent in RPMI1640 with 10% FBS. Matrigel was added as in 3D culture and pancreatic cancer cells and human pancreatic stellate cells were resuspended at 3,000 cells/well in RPMI-2% Matrigel medium supplemented with 10% FBS, overlaid at 1:1 ratio, and cultured for 24 hours before treatment. Cell viability was determined by the CellTiter-Glo luminescent cell viability assay (Promega) according to the manufacturer's protocol. […] Data were normalized to percentage of control, and IC50 values were determined. IC50 was calculated using GraphPad Prism 7.02 software. […]

[2] = test system: P-MEK, P-AKT, P-S6, cleaved caspase 3 and PARP in PDX G166; assay: Tumor signaling and apoptosis markers, PDX G166 (Western blot); assay type: in vivo, NSG mice; details: PDX G166, 5 mpk, two hours after treatment; for inhibition at 5 mg/kg: Mus musculus, 2 h
Description: To prepare whole-cell lysates, cells were washed twice with cold PBS and lysed in M-PER Mammalian Protein Extraction Reagent (product no. 78501, Thermo Fisher Scientific) supplemented with Pierce protease and phosphatase inhibitor cocktail (product no. A32961, Thermo Fisher Scientific). Tumor tissue samples were lysed in T-PER Tissue Protein Extraction Reagent (product no. 78510, Thermo Fisher Scientific) with above supplement. The automatic hand-operated OMNI-TIP Homogenizer (Omni International, Inc.) was used to homogenize the tumor tissues. Lysates from whole cells and tumor homogenates were then processed for SDS-PAGE Western blotting. The following antibodies were used: Phospho-MEK1/2 (S217/221; catalog no. 9154S), MEK1/2 (catalog no. 4694S), Phospho-AKT (S473; catalog no. 9271S), Phospho-AKT (T308; catalog no. 4056S), AKT (catalog no. 9272S), Phospho-Erk1/2 (catalog no. 4370S), Erk1/2 (catalog no. 4695S), Phospho-S6 Ribosomal Protein (Ser 235/236; catalog no. 4858S), S6 Ribosomal Protein (catalog no.2217S), cleaved-CASP-3 (catalog no. 9664), cleaved-PARP (catalog no. 9541) from Cell Signaling Technology; anti-β-ACTIN (catalog no A5441-.2ML from Sigma-Aldrich; KRAS (catalog no. OP24, from EMDMillipore), and RAF1 (catalog no. sc-7267, Santa Cruz Biotechnology), horseradish peroxidase–conjugated goat anti-GST antibody (catalog no. A190-121P from Bethyl Laboratories).
Two hours after treatment, tumors were harvested and lysates were processed for Western blotting as described above.
Figure S9. […] Two hours after treatment, tumors were harvested and lysates were processed for western blotting as described in Methods. * , **, ***, and **** designate blots from different gels. (b) and (c) Quantification of the western blots. Error bars represent standard error.

[3] = test system: low-passage pancreatic cancer cells derived from 8 patients; assay: Viability of patient-derived pancreatic cancer cells, 2D; assay type: cell-based; details: Homo sapiens, Pancreatic cancer cell; 2D conditions, 72 hours, CellTiter-Glo; read-out: IC50 values, viability, range over cells from 8 patients
Description: as §1

## COC(=O)C1C2C3(C)C(=O)C=CC2(OC3=O)C2CCC3(CBr)CC12CC3=O (centres unmarked) [KRB-456]
[1]
  IC50: 3.8 to 18.2 µM
[2]; read-out: inhibition of P-AKT (S473) levels in tumor
  inhibition at 5 mg/kg: 73.5%
[2]; read-out: inhibition of P-AKT (T308) levels in tumor
  inhibition at 5 mg/kg: 56.7%
[2]; read-out: inhibition of P-MEK levels in tumor
  inhibition at 5 mg/kg: 49.9%
[2]; read-out: inhibition of P-S6 levels in tumor
  inhibition at 5 mg/kg: 83.9%
[2]
  increase of cleaved PARP in tumor: 2.7 fold
  increase of cleaved caspase 3 in tumor: 3.1 fold
[3]
  IC50: 4.7 to 16.7 µM
